# Columns and labels:
# Protease = Protease (Human immunodeficiency virus 1, UniProt Q9YQ12); test: Inhibition of wild-type HIV1 protease expressed in Escherichia coli assessed as reduction in product formation preincubated for 30 mins followed by addition of Val-Ser-Gln-Asn-(beta-naphtyl)Ala-Pro-Ile-Val as substrate measured after 1 hr
# [1] = test system: Human immunodeficiency virus 1; test: Antiviral activity against HIV-1 infected in human MT4 cells assessed as inhibition of viral infection measured after 72 hrs; type: functional; settings: Human immunodeficiency virus 1, MT4, 72 h
# [2] = Clearance in rat at 1 mg/kg, iv or 5 mg/kg, po; type: ADME, organism-based; settings: in vivo
# [3] = Oral bioavailability in rat at 5 mg/kg; type: ADME, organism-based; settings: in vivo
# [4] = Clearance in rat at 2 mg/kg, iv or 10 mg/kg, po; type: ADME, organism-based; settings: in vivo
# [5] = Oral bioavailability in rat at 10 mg/kg; type: ADME, organism-based; settings: in vivo
# [6] = test system: Human immunodeficiency virus; test: Inhibition of HIV protease at 1 uM
# Sequence of Protease (Q9YQ12 whole entry): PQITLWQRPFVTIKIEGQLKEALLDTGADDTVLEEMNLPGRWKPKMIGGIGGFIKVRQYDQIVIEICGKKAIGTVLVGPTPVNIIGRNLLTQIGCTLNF
Structure (SMILES),IC50 (Protease),IC95 [1],clearance [2],bioavailability [3],clearance [4],bioavailability [5],inhibition [6]
COC(=O)N[C@H](C(=O)Nc1ccccc1CC[C@@H]1CN[C@H](COC(=O)NCC(F)(F)F)CO1)C(c1ccccc1)c1ccccc1,27 nM,120 nM,36 mL/min/kg,19%,–,–,–
N[C@H](C(=O)Nc1cncc(F)c1CC[C@@H]1CN[C@H](COC(=O)NCC(F)(F)F)CO1)[C@@H](c1ccc(Cl)cc1)c1cc(F)cc(F)c1,0.8 nM,49 nM,–,–,11 mL/min/kg,25%,–
N[C@H](C(=O)Nc1cncc(F)c1CC[C@@H]1CN[C@H](COC(=O)NCC(F)(F)F)CO1)C(c1ccccc1)c1ccccc1,9.9 nM,150 nM,–,–,13 mL/min/kg,59%,–
COC(=O)N[C@H](C(=O)NCCCC1CNCCO1)C(c1ccccc1)c1ccccc1 (stereo partly drawn),–,–,–,–,–,–,11%
N[C@H](C(=O)Nc1cccc(F)c1CC[C@@H]1CN[C@H](COC(=O)NCC(F)(F)F)CO1)C(c1ccccc1)c1ccccc1,3.1 nM,230 nM,–,–,–,–,–
N[C@H](C(=O)Nc1cccc(F)c1CC[C@@H]1CN[C@H](COC(=O)NCC(F)(F)F)CO1)[C@@H](c1ccc(F)cc1)c1cc(F)cc(F)c1,8.2 nM,61 nM,–,–,22 mL/min/kg,14%,–
COC(=O)N[C@H](C(=O)Nc1ccccc1CC[C@@H]1CN[C@H](COC(=O)NCc2ccc(Cl)s2)CO1)C(c1ccccc1)c1ccccc1,2.4 nM,170 nM,33 mL/min/kg,13%,–,–,–
COC(=O)N[C@H](C(=O)N[C@@H](Cc1ccccc1)[C@@H](O)CN(Cc1ccc(-c2ccccn2)cc1)NC(=O)[C@@H](NC(=O)OC)C(C)(C)C)C(C)(C)C [ATAZANAVIR],0.04 nM,17 nM,–,–,–,–,–
COC(=O)N[C@H](C(=O)Nc1ccccc1CC[C@@H]1CN[C@H](COC(=O)NCc2ccc(F)cc2)CO1)C(c1ccccc1)c1ccccc1,4.1 nM,170 nM,49 mL/min/kg,47%,–,–,–
COC(=O)N[C@H](C(=O)Nc1ccccc1CC[C@@H]1CN[C@H](COC(=O)NCc2ccccc2)CO1)C(c1ccccc1)c1ccccc1,6.1 nM,200 nM,27 mL/min/kg,< 5%,–,–,–
N[C@H](C(=O)Nc1cncc(F)c1CC[C@@H]1CN[C@H](COC(=O)NCC(F)(F)F)CO1)[C@@H](c1ccc(F)cc1)c1cc(F)cc(F)c1,2.4 nM,130 nM,–,–,–,–,–
COC(=O)N[C@H](C(=O)Nc1cnccc1CC[C@@H]1CN[C@H](COC(=O)NCC(F)(F)F)CO1)C(c1ccccc1)c1ccccc1,14 nM,330 nM,81 mL/min/kg,< 5%,–,–,–
COC(=O)N[C@H](C(=O)Nc1ccccc1CC[C@@H]1CN[C@H](COC(=O)NC(C)C)CO1)C(c1ccccc1)c1ccccc1,37 nM,190 nM,60 mL/min/kg,33%,–,–,–
COC(=O)N[C@H](C(=O)Nc1ccccc1CC[C@@H]1CN[C@H](COC(N)=O)CO1)C(c1ccccc1)c1ccccc1,20 nM,120 nM,30 mL/min/kg,16%,–,–,–
COC(=O)N[C@H](C(=O)Nc1cccc(F)c1CC[C@@H]1CN[C@H](COC(=O)NCC(F)(F)F)CO1)C(c1ccccc1)c1ccccc1,12 nM,95 nM,36 mL/min/kg,37%,–,–,–
COC(=O)N[C@H](C(=O)Nc1ccccc1CC[C@@H]1CN[C@H](COC(=O)NCc2cccc(Cl)n2)CO1)C(c1ccccc1)c1ccccc1,3.4 nM,150 nM,45 mL/min/kg,17%,–,–,–
COC(=O)N[C@H](C(=O)Nc1ccccc1CC[C@@H]1CN[C@H](COC(=O)N[C@H]2CCc3ccccc32)CO1)C(c1ccccc1)c1ccccc1,3.5 nM,63 nM,87 mL/min/kg,< 5%,–,–,–
COC(=O)N[C@H](C(=O)Nc1ccccc1CC[C@@H]1CN[C@H](COC(=O)N[C@@H]2CCc3ccccc32)CO1)C(c1ccccc1)c1ccccc1,9.7 nM,370 nM,110 mL/min/kg,< 5%,–,–,–
N[C@H](C(=O)Nc1cccc(F)c1CC[C@@H]1CN[C@H](COC(=O)NCC(F)(F)F)CO1)[C@@H](c1ccc(F)cc1)c1cccc(F)c1,6.4 nM,75 nM,–,–,45 mL/min/kg,30%,–
N[C@H](C(=O)Nc1cncc(F)c1CC[C@@H]1CN[C@H](COC(=O)NCC(F)(F)F)CO1)[C@@H](c1ccc(F)cc1)c1cccc(F)c1,2.4 nM,66 nM,–,–,16 mL/min/kg,37%,–
COC(=O)N[C@H](C(=O)Nc1ccccc1CC[C@@H]1CN[C@H](COC(=O)NCc2ccccc2F)CO1)C(c1ccccc1)c1ccccc1,3.6 nM,180 nM,61 mL/min/kg,–,–,–,–
COC(=O)N[C@H](C(=O)Nc1cncc(F)c1CC[C@@H]1CN[C@H](COC(=O)NCC(F)(F)F)CO1)C(c1ccccc1)c1ccccc1,3.5 nM,94 nM,11 mL/min/kg,15%,–,–,–

# Reference: ChEMBL document CHEMBL3826974, “Discovery of MK-8718, an HIV Protease Inhibitor Containing a Novel Morpholine Aspartate Binding Group” (ACS Med Chem Lett, 2016)
